For orientation: half-life means the time in which the quantity being followed falls by half. Broadly, the melting point is the temperature, or range, at which the solid turns liquid. By solubility (kinetic) is commonly meant the concentration staying in solution when a stock, usually in DMSO, is diluted into the medium.

The values below come from patent US7834011B2, “Heterocyclylalkyl derivatives as novel inhibitors of histone deacetylase” (Janssen Pharmaceutica N.V., priority 2006, dated 2010).

A short description of data set [1]: Metabolic stability with rat hepatocytes cell culture C.5.b. Format: in vitro ADME. The note with it: male, Sprague Dowley, rat hepatocyte cell cultures, read-out: in vitro half-life. An excerpt: Metabolism of drugs means that a lipid-soluble xenobiotic or endobiotic compound is enzymatically transformed into (a) polar, water-soluble, and excretable metabolite(s). The major organ for drug metabolism is the liver. […] However, some metabolites may have enhanced activity or toxic effects. Thus drug metabolism may include both “detoxication” and “toxication” processes. One of the major enzyme systems that determine the organism's capability of dealing with drugs and chemicals is represented by the cytochrome P450 monooxygenases, which are NADPH dependent enzymes. Metabolic stability of compounds can be determined in vitro with the use of subcellular human tissue (see example C.5.a.). Here metabolic stability of the compounds is expressed as % of drug metabolised after 15 minutes incubation of these compounds with microsomes. Quantitation of the compounds was determined by LC-MS analysis. Metabolic stability of compounds can also be determined by calculating the half live of compounds in rat hepatocyte cells (see example C.5.b.).
Rat hepatocytes were isolated from male Sprague Dowley rats. The compounds were dissolved to a 5 mM stock solution in 100% DMSO and incubated at a final concentration of 5 μM for 0, 15, 30, 60 and 120 min with rat hepatocyte cell cultures (0.5 million viable cells/0.5 ml) using 24-well plates.
Samples were prepared for LC-MS by addition of two volumes of DMSO. The samples were thoroughly shaken and subsequently centrifuged at 900 g for 10 min (room temperature). All experiments were performed in triplicate. Of the resulting supernatant 50 μl was analysed by LC-MS.
For LC-MS, elution of samples was performed on a Hypersil BDS C18 column (50×4.6 mm, 5 μm, Thermohypersil, UK). […]
Total injection volume of samples was 50 μL. […] The mass spectrometer was operated in positive ion mode in SIM adjusted to the mass of M+H with a scan width of 1 Da for quantification purposes. […] The metabolic stability of compounds in rat hepatocytes was expressed as in vitro half-lives. […]

Data set [2] in a line: Kinetic solubility in aqueous media C.3.a (nephelometer). The following applies: aqueous buffer, kinetic from dmso stock; phosphate citrate buffer pH 7.4, turbidity; read-out: Kinetic solubility score (C.3.a). It counts as physicochemical. As to the method:
The solubility of a compound measures the ability of a compound to stay in solution. In a first method the ability of a compound to stay in aqueous solution upon dilution (see example C.3.a) is measured. DMSO-stock solutions are diluted with a single aqueous buffer solvent in 3 consecutive steps. For every dilution turbidity is measured with a nephelometer.
In the first dilution step, 10 μl of a concentrated stock-solution of the active compound, solubilized in DMSO (5 mM), was added to 100 μl phosphate citrate buffer pH 7.4 and mixed. In the second dilution step, an aliquot (20 μl) of the first dilution step was further dispensed in 100 μl phosphate citrate buffer pH 7.4 and mixed. Finally, in the third dilution step, a sample (20 μl) of the second dilution step was further diluted in 100 μl phosphate citrate buffer pH 7.4 and mixed. All dilutions were performed in 96-well plates. Immediately after the last dilution step the turbidity of the three consecutive dilution steps were measured with a nephelometer. Dilution was done in triplicate for each compound to exclude occasional errors. Based on the turbidity measurements a ranking is performed into 3 classes. Compounds with high solubility obtained a score of 3 and for this compounds the first dilution is clear. Compounds with medium solubility obtained a score of 2. […]

Data set [3] deals with histone deacetylase (HeLa nuclear extracts). Description: In vitro assay for inhibition of histone deacetylase with fluorescent-labelled substrate (Fluor de Lys). Format: biochemical. An excerpt: The in vitro assay for inhibition of histone deacetylase (see example C.1) measures the inhibition of HDAC enzymatic activity obtained with the compounds of formula (I).
The HDAC Fluorescent Activity Assay/Drug Discovery Kit of Biomol (cat. No: AK-500-0001) was used. The HDAC Fluorescent Activity Assay is based on the Fluor de Lys (Fluorogenic Histone deAcetylase Lysyl) substrate and developer combination. The Fluor de Lys substrate, comprises an acetylated lysine side chain. Deacetylation of the substrate sensitizes the substrate so that, in the second step, treatment with the Fluor de Lys developer produces a fluorophore.
HeLa nuclear extracts (supplier: Biomol) were incubated at 60 μg/ml with 75 μM of substrate. The Fluor de Lys substrate was added in a buffer containing 25 mM Tris, 137 mM NaCl, 2.7 mM KCl and 1 mM MgCl2.6H2O at pH 7.4. After 30 min, 1 volume of the developer was added. The fluorophore was excited with 355 nm light and the emitted light (450 nm) was be detected on a fluorometric plate reader.
For each experiment, controls (containing HeLa nuclear extract and buffer), a blank incubation (containing buffer but no HeLa nuclear extract) and samples (containing compound dissolved in DMSO and further diluted in buffer and HeLa nuclear extract) were run in parallel. In first instance, compounds were tested at a concentration of 10^−5M. […] All sample were tested 4 times. In each test the blank value was subtracted from both the control and the sample values. The control sample represented 100% of substrate deactylation. For each sample the fluorescence was expressed as a percentage of the mean value of the controls. […] Herein the effects of test compounds are expressed as pIC50 (the negative log value of the IC50-value) (see Table F-2).

The compound `Cn1c(CNCC2CCN(c3ncc(C(=O)NO)cn3)CC2)nc2ccccc21` [Compound 3] had a melting point of 209 °C. Further, the half-life at 5 μM in data set [1] lay within 30 to 55 min. Moreover, the kinetic solubility in data set [2] is greater than 455 µM. The “Enzymatic activity pIC50 C.1” value in data set [3] amounted to 8.1.
